According to patent US11254671B2, “Chemical compounds” (GLAXOSMITHKLINE INTELLECTUAL PROPERTY DEVELOPMENT LIMITED, priority 2017, dated 2022):

system: type I collagen deposition in primary lung fibroblasts; assay: Highthroughput type I collagen deposition (scar-in-a-jar) high content screening assay; type: cell-based; details: Homo sapiens, Primary lung fibroblast, 72 h, human pulmonary fibroblasts, TGF-β 1 ng/ml, Ficoll crowding, mean of multiple experiments, read-out: mean pIC50, inhibition of type I collagen deposition (converted)
Description: Example 53 Highthroughput Type I Collagen Deposition (Scar-in-a-Jar) High Content Screening Assay
Highthroughput, cellular type I collagen deposition was measured by adapting a published method; scar-in-a-jar (Chen et al., 2009) to primary lung fibroblasts derived from human tissue and combining with high content analysis to permit fluorescent quantification of collagen deposited in the extracellular matrix (ECM). The human biological samples were sourced ethically and their research use was in accord with the terms of the informed consents
Test compounds were dissolved in 100% DMSO to give 10 mM (stocks) and further diluted to give half log dilutions to generate an 11 point concentration response curve. 1 ul was transferred to 384-well plates (Greiner Group, Kremsmunster, Austria, Catalogue No Greine 781280r).
Human pulmonary fibroblasts were maintained in DMEM media (Gibco, Catalogue No 21969) supplemented with 4 mM L-glutamine (Gibco Catalogue No 25030-024) and 10% heat inactivated FBS (Gibco, Catalogue No 10099-141) at 37° C. in 10% CO2. Cells were harvested and resuspended at 4×10^6 cells/ml in a T175 cell culture flask (BD Falcom, Catalogue No: 353112) containing 50 mL of culture media. After 4 days 37° C. in 10% CO2, cells were harvested and seeded at 4000 cells per well (50 μL/well) into 384-well plates (BD Falcon, Catalogue No 353962Greiner) in assay media (0.4% heat inactivated FBS, 4 mM L-glutamine). Plates were sealed with breathable seals (Sigma, Catalogue No. BEM-1). Assay plates were incubated for 72 h at 37° C. in 10% CO2.
Assay media was supplemented with 112.5 mg/ml Ficoll 70 (Sigma, Catalogue No F2878), 75 mg/ml Ficoll 400 (Sigma, Catalogue No F4375) and 50 μg/ml ascorbic acid (Sigma, Catalogue No A8960). 30 μL assay media were added to 1 μl compound (37 μM compound concentration in 1% DMSO). Diluted compounds (10 μL) were transferred to plates containing cells and incubated for 3 h at 37° C. in 10% CO2. Transforming growth factor (TGF)-β (R&D systems, Catalogue No 100-B/CF) was reconstituted to give 10 μg/mL (stock) and further diluted in assay media containing Ficoll and ascorbic acid (1 in 3333). TGF-β was added to cell plates (1 ng/ml final) and cells incubated for 72 h at 37° C. in 10% CO2.
Media was aspirated from cells and 30 μL/well 100% ice-cold methanol added and incubated at RT for 5 min to fix cells. Methanol was aspirated and cells washed with PBS (3×). To block and permeabilise, cells were incubated with PBS containing 1% BSA and 0.1% Triton X 100 for 20 min, followed by PBS wash (3×). Cells were incubated with mouse anti human type I collagen monoclonal antibody (Sigma, Catalogue No C2456) diluted 1:1000 in PBS for 24 h at 4° C. Cells were washed with PBS containing 0.1% Tween-20 (3×) and incubated with secondary alexa fluor 488 goat-anti-mouse antibody (Invitrogen, Catalogue No A11001, 1 in 500 in PBS) and Hoechst 33342 (Sigma, Catalogue No H21492), 1 in 1000 in PBS) for 1 h at RT, prior to washing with PBS containing 0.1% Tween (×4).
Type I collagen immunoreactivity was detected using the INCell 2000 Analyzer (GE Healthcare, INcell 2000) set to excitation and emission wavelengths for DAPI and FITC with laser focus and exposure adjusted to appropriate levels. Images were imported and analysed using Columbus software (Perkin Elmer) and computational algorithms to quantify “total collagen area” and “cell count”.
Data analysis was performed by determining % inhibition values for test compounds relative to the minimum (media only) and maximum responses (TGF-βstimulation) with non-linear regression analysis to determine IC50 values for test compounds.

Row | Compound | IC50 [nM]
1 | CC[C@H]1COCCN1c1cc(CS(C)(=O)=O)cc(-c2ccc3[nH]c(CO)cc3n2)n1 [Example 34, (5-{6-[(3S)-3-ethylmorpholin-4-yl]-4-(methanesulfonylmethyl)pyridin-2-yl}-1H-pyrrolo[3,2-b]pyridin-2-yl)methanol] | 39.8 to 1000
2 | CC[C@H]1COCCN1c1cc(CS(=O)(=O)N(C)C)cc(-c2ccc3[nH]c(CO)cc3n2)n1 [Example 35, 1-{2-[(3S)-3-ethylmorpholin-4-yl]-6-[2-(hydroxymethyl)-1H-pyrrolo[3,2-b]pyridin-5-yl]pyridin-4-yl}-N,N-dimethylmethanesulfonamide] | 39.8 to 1000
3 | CNCc1cc2nc(-c3cc(C4(S(C)(=O)=O)CCOCC4)cc(N4C5CCC4COC5)n3)ccc2[nH]1 [Example 40, ({5-[4-(4-methanesulfonyloxan-4-yl)-6-{3-oxa-8-azabicyclo[3.2.1]octan-8-yl}pyridin-2-yl]-1H-pyrrolo[3,2-b]pyridin-2-yl}methyl)(methyl)amine] | 39.8 to 1000
